The results in this text go back to patent US9546157B2, “Asymmetric piperidinyl-substituted ureas as medicines” (Helsinn Healthcare SA, priority 2014, dated 2017).

Series [1] is described as follows: Metabolic Stability (M = Mouse). The class given is in vitro ADME.
Series [2] has as its target T1, GHSR1a (Homo sapiens, UniProt Q92847).
T1 construct: expressed in transfected cells; host or cells: HEK293
As to the kind of experiment: Calcium FLIPR assay, GHSR-1a agonism. The class given is cell-based. The arrangement: Emax: unit not given here. The settings on record: HEK293/GHSR1a cells. Summed up:
(§1)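 Calcium flux measured by FLIPR in GHSR1a-expressing HEK293 cells after 30-60 min dye preloading. Compound was added at t=20 sec, alone for agonism or with ghrelin (10 nM) for antagonism, and fluorescence recorded for 2 minutes. EC50 and IC50 were estimated from dose-response data.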

Series [3] deals with T1, GHSR1a. Kind of series: Calcium FLIPR assay, GHSR-1a antagonism (reduction of ghrelin response). The class given is cell-based. To be noted: HEK293/GHSR1a cells, ghrelin 10 nM. Summed up:
as §1

Series [4] in a line: Metabolic Stability (H = Human). The class given is in vitro ADME.

SMILES strings stand for the structures. pEC50, pIC50: −log10 of the molar value.

T1 sequence (Q92847 whole entry): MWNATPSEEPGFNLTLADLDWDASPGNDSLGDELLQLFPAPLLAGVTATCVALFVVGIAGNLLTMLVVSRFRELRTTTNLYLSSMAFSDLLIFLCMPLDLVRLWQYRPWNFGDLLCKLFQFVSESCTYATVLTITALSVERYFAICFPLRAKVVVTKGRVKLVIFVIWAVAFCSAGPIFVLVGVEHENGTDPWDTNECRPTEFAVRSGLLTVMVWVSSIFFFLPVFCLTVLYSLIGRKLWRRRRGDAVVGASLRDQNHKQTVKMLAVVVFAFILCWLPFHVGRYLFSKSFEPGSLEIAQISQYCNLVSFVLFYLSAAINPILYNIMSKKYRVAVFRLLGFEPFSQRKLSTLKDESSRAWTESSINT

For `CC(NC(=O)N(C)C1CCN(C)CC1)c1ccc(-c2ccoc2)c(Cl)c1Cl` (stereo not shown) [Compound H0507, 3-(1-(2,3-dichloro-4-(furan-3-yl)phenyl)ethyl)-1-methyl-1-(1-methylpiperidin-4-yl)urea], the “Metabolic Stability M” value in series [1] is listed as “High H High M”. In addition, the pEC50 in series [2] is 7.92. The pIC50 in series [3] is 8.10. In series [4], the “Metabolic Stability H” value is listed as “High H High M”.

For the molecule `COc1ccc(-c2ccc(C(C)NC(=O)N(C)C3CCN(C)CC3)c(Cl)c2Cl)cc1` (stereo not shown) [Compound H0508, 3-(1-(2,3-dichloro-4′-methoxy-[1,1′-biphenyl]-4-yl)ethyl)-1-methyl-1-(1-methylpiperidin-4-yl)urea], in series [1], the “Metabolic Stability M” value is reported as “High”. Further, in series [2], the pEC50 was less than 4.52. Further, in series [3], the pIC50 was 7.12. Also, the “Metabolic Stability H” value in series [4] is “Medium”.

Take `CC(NC(=O)N(C)C1CCN(C)CC1)c1ccc(-c2cnc3[nH]ccc3c2)c(Cl)c1Cl` (stereo not shown) [Compound H0514]: in series [1], the “Metabolic Stability M” value is on record as “Medium H Medium M”. Also, the pEC50 in series [2] was 7.42. For the same molecule, the pIC50 in series [3] is 7.80. Besides, in series [4], the “Metabolic Stability H” value is reported as “Medium H Medium M”.

In the case of `CC(NC(=O)N(C)C1CCN(C)CC1)c1ccc(I)c(Cl)c1Cl` (stereo not shown) [Compound H0519, 3-(1-(2,3-dichloro-4-iodophenyl)ethyl)-1-methyl-1-(1-methylpiperidin-4-yl)urea], the “Metabolic Stability M” value in series [1] was “Medium H Medium M”. For the same molecule, the pEC50 in series [2] is 8.22. For the same molecule, the pIC50 in series [3] is 8.52. Besides, the “Metabolic Stability H” value in series [4] was “Medium H Medium M”.

For the molecule `CC(NC(=O)N(C)C1CCN(C)CC1C)c1ccc(-c2cccnc2)c(Cl)c1Cl` (stereo not shown) [Compound H0527, 3-(1-(2,3-dichloro-4-(pyridin-3-yl)phenyl)ethyl)-1-(1,3-dimethylpiperidin-4-yl)-1-methylurea], the “Metabolic Stability M” value in series [1] is listed as “Medium H Medium M”. Moreover, the pEC50 in series [2] was less than 4.52. Further, the pIC50 in series [3] was 7.72. For the same molecule, the “Metabolic Stability H” value in series [4] is listed as “Medium H Medium M”.

For the molecule `CC(NC(=O)N(C)C1CCN(C)CC1C)c1ccc(-c2cn[nH]c2)c(Cl)c1Cl` (stereo not shown) [Compound H0528, 3-(1-(2,3-dichloro-4-(1H-pyrazol-4-yl)phenyl)ethyl)-1-(1,3-dimethylpiperidin-4-yl)-1-methylurea], the “Metabolic Stability M” value in series [1] is “Medium H Medium M”. The negative-log EC50 (pEC50) in series [2] was less than 4.52. In addition, the pIC50 in series [3] was 7.47. Further, the “Metabolic Stability H” value in series [4] was “Medium H Medium M”.

Regarding `CC(NC(=O)N(C)C1CCN(C)C1)c1ccc(-c2cn[nH]c2)c(Cl)c1Cl` (stereo not shown) [Compound H0529, 3-(1-(2,3-dichloro-4-(1H-pyrazol-4-yl)phenyl)ethyl)-1-methyl-1-(1-methylpyrrolidin-3-yl)urea], the “Metabolic Stability M” value in series [1] is listed as “Poor”. Further, in series [2], the pEC50 is less than 4.52. Besides, the pIC50 in series [3] was 7.92. Moreover, in series [4], the “Metabolic Stability H” value is “Medium”.

Turning to `CC(NC(=O)N(C)C1CCN(C)C1)c1ccc(-c2ccsc2)c(Cl)c1Cl` (stereo not shown) [Compound H0531, 3-(1-(2,3-dichloro-4-(thiophen-3-yl)phenyl)ethyl)-1-methyl-1-(1-methylpyrrolidin-3-yl)urea], the “Metabolic Stability M” value in series [1] was “Poor”. Besides, the pEC50 in series [2] is 8.30. Besides, in series [3], the pIC50 is 8.40. Further, the “Metabolic Stability H” value in series [4] was “Medium”.

Regarding `COC(=O)c1ccc(CN(C(=O)NC(C)c2ccc(-c3cn[nH]c3)c(Cl)c2Cl)C2CCN(C)CC2)cc1` (stereo not shown) [Compound H0537, methyl 4-((3-(1-(2,3-dichloro-4-(1H-pyrazol-4-yl)phenyl)ethyl)-1-(1-methylpiperidin-4-yl)ureido)methyl)benzoate], the “Metabolic Stability M” value in series [1] is “Poor H Poor M”. Further, the pEC50 in series [2] was less than 4.52. Moreover, the pIC50 in series [3] is 7.89. The “Metabolic Stability H” value in series [4] is recorded as “Poor H Poor M”.

As to `CC(NC(=O)N(C)C1CCN(C)CC1)c1ccc(-c2c[nH]cn2)c(Cl)c1Cl` (stereo not shown) [Compound H0542, 3-(1-(2,3-dichloro-4-(1H-imidazol-4-yl)phenyl)ethyl)-1-methyl-1-(1-methylpiperidin-4-yl)urea], the “Metabolic Stability M” value in series [1] was “High H High M”. Further, the pEC50 in series [2] was 7.82. Also, the pIC50 in series [3] is 7.74. Moreover, the “Metabolic Stability H” value in series [4] was “High H High M”.

Consider `CC(NC(=O)N(Cc1ccc(CO)cc1)C1CCN(C)CC1)c1ccc(-c2cccnc2)c(Cl)c1Cl` (stereo not shown) [Compound H0546, 3-(1-(2,3-dichloro-4-(pyridin-3-yl)phenyl)ethyl)-1-(4-(hydroxymethyl)benzyl)-1-(1-methylpiperidin-4-yl)urea], for which the “Metabolic Stability M” value in series [1] was “Medium H Medium M”. Moreover, the pEC50 in series [2] was less than 4.52. Besides, in series [3], the pIC50 is 8.10. Also, the “Metabolic Stability H” value in series [4] is listed as “Medium H Medium M”.

For the molecule `CC(NC(=O)N(C)C1CCN(C)CC1)c1ccc(-n2ccnn2)c(Cl)c1Cl` (stereo not shown) [Compound H0565, 3-(1-(2,3-dichloro-4-(1H-1,2,3-triazol-1-yl)phenyl)ethyl)-1-methyl-1-(1-methylpiperidin-4-yl)urea], in series [1], the “Metabolic Stability M” value was “High H High M”. In addition, the pEC50 in series [2] was 7.52. For the same molecule, in series [3], the pIC50 was 7.55. Moreover, the “Metabolic Stability H” value in series [4] is on record as “High H High M”.

On to `CC(NC(=O)N(C)C1CCN(C)CC1)c1ccc(-c2cscn2)c(Cl)c1Cl` (stereo not shown) [Compound H0568, 3-(1-(2,3-dichloro-4-(thiazol-4-yl)phenyl)ethyl)-1-methyl-1-(1-methylpiperidin-4-yl)urea], for which the “Metabolic Stability M” value in series [1] is listed as “High H High M”. Further, the pEC50 in series [2] was 8.40. Besides, the pIC50 in series [3] is 8.05. Also, in series [4], the “Metabolic Stability H” value is reported as “High H High M”.

For the molecule `CC(NC(=O)N(C)C1CCN(C)CC1)c1ccc(-c2cocn2)c(Cl)c1Cl` (stereo not shown) [Compound H0569, 3-(1-(2,3-dichloro-4-(oxazol-4-yl)phenyl)ethyl)-1-methyl-1-(1-methylpiperidin-4-yl)urea], in series [1], the “Metabolic Stability M” value is “Medium H Medium M”. Further, the pEC50 in series [2] was less than 4.52. For the same molecule, in series [3], the pIC50 is 7.06. In addition, in series [4], the “Metabolic Stability H” value is reported as “Medium H Medium M”.

For the molecule `CC(NC(=O)N(C)C1CCN(C)CC1)c1ccc(-c2ccsc2)c2ccccc12` (stereo not shown) [Compound H0574, 1-methyl-1-(1-methylpiperidin-4-yl)-3-(1-(4-(thiophen-3-yl)naphthalen-1-yl)ethyl)urea], the “Metabolic Stability M” value in series [1] is “Medium H Medium M”. In series [2], the pEC50 is 7.09 and the Emax is on record as 2489. The pIC50 in series [3] was 7.17. The “Metabolic Stability H” value in series [4] is “Medium H Medium M”.

`CC(NC(=O)N(C)C1CCN(C)CC1)c1ccc(-c2cccs2)c2ccccc12` (stereo not shown) [Compound H0575, 1-methyl-1-(1-methylpiperidin-4-yl)-3-(1-(4-(thiophen-2-yl)naphthalen-1-yl)ethyl)urea]: the “Metabolic Stability M” value in series [1] is listed as “Medium H Medium M”. Further, in series [2], the pEC50 was 7.55 and the Emax came out at 3533. The pIC50 in series [3] is 7.49. The “Metabolic Stability H” value in series [4] is given as “Medium H Medium M”.

In the case of `CC(NC(=O)N(C)C1CCN(C)CC1)c1ccc(-c2cccs2)c(Cl)c1F` (stereo not shown) [Compound H0582, 3-(1-(34-chloro-2-fluoro-4-(thiophen-2-yl)phenyl)ethyl)-1-methyl-1-(1-methylpiperidin-4-yl)urea], in series [1], the “Metabolic Stability M” value was “Medium H Medium M”. Also, in series [2], the pEC50 is 7.70 and the Emax is on record as 2069. The pIC50 in series [3] is 7.82. In series [4], the “Metabolic Stability H” value is reported as “Medium H Medium M”.

As for `CC(NC(=O)N(C)C1CCN(C)CC1)c1ccc(-c2cccc(N)c2)c2ccccc12` (stereo not shown) [Compound H0591, 3-(1-(4-(3-aminophenyl)naphthalen-1-yl)ethyl)-1-methyl-1-(1-methylpiperidin-4-yl)urea], the “Metabolic Stability M” value in series [1] is “Medium H Medium M”. Further, the pEC50 in series [2] was 6.90. Moreover, the pIC50 in series [3] was 7.96. In series [4], the “Metabolic Stability H” value is recorded as “Medium H Medium M”.

As for `CN1CCC(N(C)C(=O)NC(COCc2cccc(CO)c2)c2ccc(-c3ccsc3)c(Cl)c2Cl)CC1` (stereo not shown) [Compound H0594, 3-(1-(2,3-dichloro-4-(thiophen-3-yl)phenyl)-2-((3-(hydroxymethyl)benzyl)oxy)ethyl)-1-methyl-1-(1-methylpiperidin-4-yl)urea], in series [1], the “Metabolic Stability M” value is listed as “Medium”. In series [2], the pEC50 was less than 4.52. Moreover, in series [3], the pIC50 is 7.27. The “Metabolic Stability H” value in series [4] is given as “Poor”.

Turning to `CC(NC(=O)N(C)C1CCN(C)CC1)c1ccc(-c2cncs2)c2ccccc12` (stereo not shown) [Compound H0597, 1-methyl-1-(1-methylpiperidin-4-yl)-3-(1-(4-(thiazol-5-yl)naphthalen-1-yl)ethyl)urea], the “Metabolic Stability M” value in series [1] was “Poor H Poor M”. Moreover, the pEC50 in series [2] was less than 4.52. For the same molecule, the pIC50 in series [3] is 7.62. For the same molecule, the “Metabolic Stability H” value in series [4] is “Poor H Poor M”.

As to `CC(NC(=O)N(C)C1CCN(C)CC1)c1ccc(-c2c[nH]nn2)c(Cl)c1Cl` (stereo not shown) [Compound H0604, 3-(1-(2,3-dichloro-4-(1H-1,2,3-triazol-4-yl)phenyl)ethyl)-1-methyl-1-(1-methylpiperidin-4-yl)urea], the “Metabolic Stability M” value in series [1] is on record as “High H High M”. Further, in series [2], the pEC50 was 7.60. For the same molecule, the pIC50 in series [3] was 7.92. Further, the “Metabolic Stability H” value in series [4] was “High H High M”.

For `CC(NC(=O)N(C)C1CCN(C)CC1)c1ccc(-c2cccc(C#N)c2)c(Cl)c1Cl` (stereo not shown) [Compound H0610, 3-(1-(2,3-dichloro-3′-cyano-[1,1′-biphenyl]-4-yl)ethyl)-1-methyl-1-(1-methylpiperidin-4-yl)urea], in series [1], the “Metabolic Stability M” value was “Medium H Medium M”. Besides, in series [2], the pEC50 was less than 4.52. Further, the pIC50 in series [3] was 7.00. Moreover, the “Metabolic Stability H” value in series [4] was “Medium H Medium M”.

The pEC50 is the negative decadic logarithm of the EC50, by convention in mol/L. For orientation: pIC50 means −log10 of the IC50, conventionally taken in molar units.
